Data from patent US20130053243A1, “PLANTS HAVING INCREASED TOLERANCE TO HERBICIDES” (BASF SE, priority 2010, published 2013).

Tests used:
[1] = system: soybean plants, wild type (non-transformed); experiment: Greenhouse spray test, soybean T0 cuttings; type: in vivo, Glycine max; conditions: no transgene, two weeks after treatment, scale 0 (no injury) to 9 (complete death)
Method: (§1) Transgenic plants expressing heterologous HPPD or HST enzymes are tested for tolerance against coumarone-derivative herbicides in greenhouse experiments.
(§2) For post emergence treatment, the test plants are first grown to a height of 3 to 15 cm, depending on the plant habit, and only then treated with the herbicides. For this purpose, the test plants are either sown directly and grown in the same containers, or they are first grown separately and transplanted into the test containers a few days prior to treatment.
(§3) For testing of T0 plants, cuttings can be used. In the case of soybean plants, an optimal shoot for cutting is about 7.5 to 10 cm tall, with at least two nodes present. Each cutting is taken from the original transformant (mother plant) and dipped into rooting hormone powder (indole-3-butyric acid, IBA). The cutting is then placed in oasis wedges inside a bio-dome. Wild type cuttings are also taken simultaneously to serve as controls. The cuttings are kept in the bio-dome for 5-7 days and then transplanted to pots and then acclimated in the growth chamber for two more days. Subsequently, the cuttings are transferred to the greenhouse, acclimated for approximately 4 days, and then subjected to spray tests as indicated. Depending on the species, the plants are kept at 10-25° C. or 20-35° C. The test period extends over 3 weeks. During this time, the plants are tended and their response to the individual treatments is evaluated. Herbicide injury evaluations are taken at 2 and 3 weeks after treatment. Plant injury is rated on a scale of 0 to 9, 0 being no injury and 9 being complete death.

[2] = system: Chlamydomonas strain CMr04; experiment: Growth inhibition of Chlamydomonas strains (tolerance); type: cell-based, Chlamydomonas reinhardtii; conditions: read-out: IC50 of growth inhibition
Method: (§4) Algae cells of Chlamydomonas reinhardtii strains CC-503 and CC-1691 (Duke University, Durham, USA) are propagated in TAP medium (Gorman and Levine (1965) PNAS 54: 1665-1669) by constant shaking at 100 rpm, 22° C. and 30 μmol Phot*m^−2*[…] light illumination. Scenedesmus obliquus (University of Gottingen, Germany) are propagated in algae medium as described (Boger and Sandmann, (1993) In: Target assays for modern herbicides and related phytotoxic compounds, Lewis Publishers) under same culturing conditions as mentioned for Chlamydomonas. Compound screening is performed at 450 μmol Phot*m^−2*[…] illumination.
(§5) Sensitive strains of Chlamydomonas reinhardtii or Scenedesmus obliquus (Tables 14, 15) are mutated with 0.14 […] (EMS) for 1 h as described by Loppes (1969, Mol Gen Genet. 104: 172-177) Tolerant strains are identified by screening of mutagenized cells on solid nutrient solution plates containing “coumarone-derivative herbicides” or other HPPD inhibiting herbicides at wildype-lethal concentrations. Examples of the data obtained are depicted in Table 16 and FIG. 2.

[3] = system: Chlamydomonas strain CMr13; experiment: as above; type: cell-based, Chlamydomonas reinhardtii; conditions: read-out: IC50 of growth inhibition
Method: as §4, §5

[4] = system: Chlamydomonas strain CMr10; experiment: as above; type: cell-based, Chlamydomonas reinhardtii; conditions: read-out: IC50 of growth inhibition
Method: as §4, §5

[5] = system: Chlamydomonas strain CC1961 wild-type; experiment: as above; type: cell-based, Chlamydomonas reinhardtii; conditions: read-out: IC50 of growth inhibition
Method: as §4, §5

[6] = system: Chlamydomonas strain CMr05; experiment: as above; type: cell-based, Chlamydomonas reinhardtii; conditions: read-out: IC50 of growth inhibition
Method: as §4, §5

[7] = system: Chlamydomonas strain CMr06; experiment: as above; type: cell-based, Chlamydomonas reinhardtii; conditions: read-out: IC50 of growth inhibition
Method: as §4, §5

[8] = system: Chlamydomonas strain CMr15; experiment: as above; type: cell-based, Chlamydomonas reinhardtii; conditions: read-out: IC50 of growth inhibition
Method: as §4, §5

[9] = system: transgenic soybean plants, event AV3646 (CrHPPD1); experiment: Greenhouse spray test, transgenic soybean T0 cuttings; type: in vivo, Glycine max; conditions: two weeks after treatment, scale 0 (no injury) to 9 (complete death)
Method: as §1, §2, §3

[10] = system: transgenic soybean plants, event AV3639 (AtHPPD); experiment: as above; type: in vivo, Glycine max; conditions: two weeks after treatment, scale 0 (no injury) to 9 (complete death)
Method: as §1, §2, §3

[11] = system: transgenic soybean plants, event AV3641 (AtHPPD); experiment: as above; type: in vivo, Glycine max; conditions: two weeks after treatment, scale 0 (no injury) to 9 (complete death)
Method: as §1, §2, §3

[12] = system: transgenic soybean plants, event LG4564; experiment: as above; type: in vivo, Glycine max; conditions: event LG4564, CrHPPD2 (head unclear), two weeks after treatment, scale 0 (no injury) to 9 (complete death)
Method: as §1, §2, §3

[13] = system: transgenic soybean plants, event LG4628 (CrHPPD2); experiment: as above; type: in vivo, Glycine max; conditions: two weeks after treatment, scale 0 (no injury) to 9 (complete death)
Method: as §1, §2, §3

[14] = system: transgenic soybean plants, event AV3653 (AtHPPD); experiment: as above; type: in vivo, Glycine max; conditions: two weeks after treatment, scale 0 (no injury) to 9 (complete death)
Method: as §1, §2, §3

CC1=NOC(c2c(Cl)ccc(C3=C(O)c4ncccc4N(CC(F)F)S3(=O)=O)c2Cl)C1 (stereo not shown) [Inhibitor 1, 3-[2,4-dichloro-3-(3-methyl-4,5-dihydroisoxazol-5-yl)phenyl]-1-(2,2-difluoroethyl)-2,2-dioxo-pyrido[3,2-c]thiazin-4-ol]
Injury evaluation (plant injury rating) ([1]; 50 g/ha): 4.5 | Injury evaluation (plant injury rating) ([1]; 100 g/ha): 5.5 | Injury evaluation (plant injury rating) ([1]; 200 g/ha): 6 | IC50 [2]: > 1000 µM | IC50 [3]: 810 µM | IC50 [4]: > 1000 µM | IC50 [5]: 620 µM | IC50 [6]: > 1000 µM | IC50 [7]: > 1000 µM | IC50 [8]: > 1000 µM | Injury evaluation (plant injury rating) ([9]; 50 g/ha): 3 | Injury evaluation (plant injury rating) ([9]; 100 g/ha): 4 | Injury evaluation (plant injury rating) ([9]; 200 g/ha): 4 | Injury evaluation (plant injury rating) ([10]; 50 g/ha): 3 | Injury evaluation (plant injury rating) ([10]; 100 g/ha): 2 | Injury evaluation (plant injury rating) ([10]; 200 g/ha): 3 | Injury evaluation (plant injury rating) ([11]; 50 g/ha): 2 | Injury evaluation (plant injury rating) ([11]; 100 g/ha): 2 | Injury evaluation (plant injury rating) ([11]; 200 g/ha): 3 | Injury evaluation (plant injury rating) ([12]; 50 g/ha): 3 | Injury evaluation (plant injury rating) ([12]; 100 g/ha): 3 | Injury evaluation (plant injury rating) ([12]; 200 g/ha): 4 | Injury evaluation (plant injury rating) ([13]; 50 g/ha): 4 | Injury evaluation (plant injury rating) ([13]; 100 g/ha): 3 | Injury evaluation (plant injury rating) ([13]; 200 g/ha): 4 | Injury evaluation (plant injury rating) ([14]; 50 g/ha): 3 | Injury evaluation (plant injury rating) ([14]; 100 g/ha): 3 | Injury evaluation (plant injury rating) ([14]; 200 g/ha): 3

Cc1c(C(=O)c2cnn(C)c2O)ccc(S(C)(=O)=O)c1C1=NOCC1 [Topramezone, reference compound]
Injury evaluation (plant injury rating) ([1]; 6.25 g/ha): 7 | Injury evaluation (plant injury rating) ([1]; 12.5 g/ha): 7 | IC50 [2]: 390 µM | IC50 [3]: 200 µM | IC50 [4]: 920 µM | IC50 [5]: 140 µM | IC50 [6]: 710 µM | IC50 [7]: 860 µM | IC50 [8]: 230 µM | Injury evaluation (plant injury rating) ([9]; 6.25 g/ha): 6 | Injury evaluation (plant injury rating) ([9]; 12.5 g/ha): 7 | Injury evaluation (plant injury rating) ([10]; 6.25 g/ha): 4 | Injury evaluation (plant injury rating) ([10]; 12.5 g/ha): 5 | Injury evaluation (plant injury rating) ([11]; 6.25 g/ha): 4 | Injury evaluation (plant injury rating) ([11]; 12.5 g/ha): 4 | Injury evaluation (plant injury rating) ([12]; 6.25 g/ha): 3 | Injury evaluation (plant injury rating) ([12]; 12.5 g/ha): 4 | Injury evaluation (plant injury rating) ([13]; 6.25 g/ha): 5 | Injury evaluation (plant injury rating) ([13]; 12.5 g/ha): 6 | Injury evaluation (plant injury rating) ([14]; 6.25 g/ha): 2 | Injury evaluation (plant injury rating) ([14]; 12.5 g/ha): 3
